Results taken from patent US20060058359A1, “Compounds useful as pesticides” (priority 2002, published 2006).

Experiments:
[1] = system: Cotton Aphid (Aphis gossypii); experiment: Testing with Cotton Aphid (squash cotyledon foliar spray assay); assay type: in vivo; settings: foliar spray on squash, 3 days after application
From the text: Yellow crookneck squash, Cucurbita pepo, is planted in 3 inch pots and placed in a greenhouse. Plants are watered regularly for 5 to 7 days until they reach the first emergent leaf stage. Plants are then trimmed to a single cotyledon. The squash assay consists of four squash plants per treatment with each plant cotyledon considered a replicate. Four additional plants are used as a control treatment (receiving solvent blank application only). Twenty-four hours prior to application, a leaf section of heavily infested squash plant from the aphid colony is placed onto each cotyledon, allowing a mixed population of A. gossypii nymphs and adults to migrate and infest the test plants. The pre-infested squash cotyledons are sprayed on both the upper and lower surfaces using an airbrush sprayer set at 2 psi. Formulation is an aqueous solution containing 5% solvent and 0.025% Tween 20 surfactant to yield concentrations of 50 ppm and 5 ppm of the test compound. Plants are sprayed to runoff. Tests are held in ambient laboratory temperatures for three days. At 3 days after application (DM) the number of live aphids are counted with the aid of a dissecting microscope. The number of live aphids in the treatment is compared to the number of live aphids in the solvent blank-treated controls and percent mortality is calculated.

[2] = system: Cat Flea (Cntenocephalides felis); experiment: Testing with Cat Flea (treated media assay); assay type: in vivo; settings: 0.1 μg/g rate in media, infested with eggs, adults counted after five weeks vs acetone only
Description: Media is prepared by mixing 1 part dried bovine blood, 4 parts ground dog food pellets, and 95 parts clean sand. Compounds are dissolved in acetone and further diluted in acetone to yield the required range of concentrations. The acetone solutions are applied to measured amounts of media in small dishes. Final concentrations are expressed as micrograms of compound per gram of media. After the acetone has dried, the treated media is dispensed into small glass vials and infested with 5 to 10 cat flea (Cntenocephalides felis) eggs. The vials are loosely capped and held under controlled conditions for five weeks. Activity is assessed based on the average number of adult cat fleas present in the treated vials compared to the average number of adult cat fleas in the media treated with acetone only.

| Structure (SMILES) | percent mortality ([1]; 5 parts per million) [%] | percent mortality ([1]; 50 parts per million) [%] | control of cat fleas [2] [%] |
| --- | --- | --- | --- |
| C/N=C(/C(=CN(C)C)[N+](=O)[O-])N(C)Cc1ccc(Cl)nc1 [Compound One] | 100 | 100 | 90 |
| C/N=C(/C(=CNc1ccccc1)[N+](=O)[O-])N(C)Cc1ccc(Cl)nc1 [Compound Three] | 100 | 100 | 38 |
